In series [1] the test system is glutathione S-transferase (GST). Nature of the series: Glutathione S-transferase (GST) inhibition assay (CDNB conjugation) with rat hepatic cytosolic fraction. Conditions: for inhibition of GST activity: 0.08 mg/mL; for GST activity: compound 0.08 mg/mL, activity relative to control (DMSO), CDNB substrate. Format: biochemical. On the procedure:
(§1) Male Wistar rats ([…] weight) were obtained from Universidade da Zona Oeste (UEZO). The animals were kept under light- and temperature-controlled conditions and were provided with rodent laboratory chow and water ad libitum. The rats were euthanized prior to the preparation of cytosolic and microsomal fractions. The livers were removed, placed in ice-cold 0.1 M phosphate buffer (pH 7.4) and then homogenized. Fractions were prepared by differential centrifugation and protein content was determined by Peterson’s methods.
(§2) 5,4′-Dihydroxy-7,3′5′-trimethoxyisoflavone (9), 7,3′-di-O-methylorobol (10), piscigenin (11), and sequoiaflavone (15) were accurately weighed. Solutions were prepared at a concentration of 8 mg/mL using DMSO as a solvent. CYP1A and GST assays were used aliquots of 10 µL of solution.
The conjugation of glutathione to 1-chloro-2,4,-dinitrobenzene (CDNB) was measured as a non-speciﬁc substrate for GST activity. To a quartz cuvette reduced cytosolic fraction (10 μg), CDNB (2 mM) and 100 mM potassium phosphate buffer (pH 6.1) were added in a ﬁnal volume of 1 mL. The cuvette was placed in a spectrophotometer and the reaction initiated by the addition of glutathione (5 mM). The increase in absorbance at 340 nm over a 3 min period was measured at room temperature. An extinction coefﬁcient of […] was used to determine activity from the initial slope of the reaction. GST activity was calculated as amount of produced conjugated per minute per protein mg. Assays containing phytochemicals were compared with control with DMSO (dimethylsulfoxide).

The subject of series [2] is cytochrome P450-dependent 7-ethoxycoumarin O-deethylase (ECOD). The series is described as follows: CYP-catalyzed ethoxycoumarin O-desalkylation (ECOD) inhibition assay with rat liver microsomes. It is filed as biochemical. Conditions: rat hepatic microsomes; for ECOD activity: compound 0.08 mg/mL, activity relative to control (DMSO) = 100%. As for the experimental part:
as §1, §2
Ethoxycoumarin O-desalkylation by rat liver microsomes was used as a probe to determine CYP1A activity. Ethoxycumarin (1 mM), NADPH (1 mM), magnesium chloride (10 mM) and rat liver microsomes (5.5 μg) were incubated in phosphate buffer (0.1 M), pH 7.8 (0.5 mL ﬁnal volume). Incubations were at 37 °C for 5 min. The reaction was terminated with trichloroacetic acid (TCA) 2.5% followed by centrifugation (1000 g, 10 min). Immediately before ﬂuorescence determination, 2 mL of glycine-NaOH buffer were added and fluorescence of cumarin was determined (excitation: 390 nm and emission 440 nm). CYP activity was calculated as amount of produced cumarin per minute per protein mg. Assays containing phytochemicals were compared with control with DMSO (dimethylsulfoxide).
For orientation: Liver microsomes are vesicles of endoplasmic reticulum, rich in cytochrome P450 enzymes.

The test system of a further series is CYP1A1. Also on record: method as in PMID 15661813. Conditions: HepG2 cell; cited from earlier work.
For series [3], the system named is 7-ethoxycoumarin O-deethylase (ECOD). Also on record: method as in PMID 9522437. Conditions: liver microsomes from rats treated with 3-methylcholanthrene; cited from earlier work.

Several values for one entry are separate records, joined by “and”; a condition that tells them apart may be missing. Identical values can stand only once.

Turning to `COc1cc(O)c2c(=O)c(-c3cc(OC)c(O)c(OC)c3)coc2c1` [Compound 9, 5,4′-dihydroxy-7,5′,3′-trimethoxyisoflavone], in series [1], the “inhibition of GST activity” value is recorded as approximately 75% and the GST activity is 25.3 ±5.3%. The compound also gave an ECOD activity in series [2] of 66.9 ±27.7%.

Take `COc1cc(O)c2c(=O)c(-c3ccc(O)c(OC)c3)coc2c1` [Compound 10, 7,3′-di-O-methylorobol]: the “inhibition of GST activity” value in series [1] is given as “not observed”. Moreover, in series [2], the ECOD activity came to 77.8 ± 11.6%.

`COc1cc(-c2coc3cc(O)cc(O)c3c2=O)cc(OC)c1O` [Compound 11, piscigenin]: in series [1], the “inhibition of GST activity” value is approximately 70% and the GST activity turned out to be 32.2 ±1.3%. Also, the ECOD activity in series [2] is on record as 53.5 ± 12.4%.

In series [1], `COc1cc(O)c2c(=O)cc(-c3ccc(O)c(-c4c(O)cc(O)c5c(=O)cc(-c6ccc(O)cc6)oc45)c3)oc2c1` [Compound 15, sequoiaflavone] showed a GST activity of 77.4 ± 6.7%. Further, the “inhibition of ECOD activity” value in series [2] (compared with control 100%, 0.08 mg/mL) was 75%. Further, the ECOD activity in series [2] was 24.8% and 24.8 ± 1.2%.

For the compound `COc1cc(OC)c2c(=O)cc(-c3ccccc3)oc2c1` [DMF, 5,7-Dimethoxyflavone], in the series with CYP1A1, the “CYP1A1 EROD activity” value is “virtually down to zero”.

With (±)-catechin, the “effect on microsomal ECOD activity” value in series [3] is on record as “no effect”.
